Data on two molecules can be found in patent US20090062273A1, “3-H-pyrazolopyridines and salts thereof, pharmaceutical compositions comprising same, methods of preparing same and uses of same” (priority 2006, published 2009).

Assay [1] has as its target T1, Tie2 (Homo sapiens, UniProt Q02763). On the set-up: expressed in transfected cells; host or cells: CHO (CHO Tie2/DHFR). As to conditions: more potent against other kinases than against Tie2; cited from earlier work.
Target sequence in this assay (Q02763 23-1124, species assumed): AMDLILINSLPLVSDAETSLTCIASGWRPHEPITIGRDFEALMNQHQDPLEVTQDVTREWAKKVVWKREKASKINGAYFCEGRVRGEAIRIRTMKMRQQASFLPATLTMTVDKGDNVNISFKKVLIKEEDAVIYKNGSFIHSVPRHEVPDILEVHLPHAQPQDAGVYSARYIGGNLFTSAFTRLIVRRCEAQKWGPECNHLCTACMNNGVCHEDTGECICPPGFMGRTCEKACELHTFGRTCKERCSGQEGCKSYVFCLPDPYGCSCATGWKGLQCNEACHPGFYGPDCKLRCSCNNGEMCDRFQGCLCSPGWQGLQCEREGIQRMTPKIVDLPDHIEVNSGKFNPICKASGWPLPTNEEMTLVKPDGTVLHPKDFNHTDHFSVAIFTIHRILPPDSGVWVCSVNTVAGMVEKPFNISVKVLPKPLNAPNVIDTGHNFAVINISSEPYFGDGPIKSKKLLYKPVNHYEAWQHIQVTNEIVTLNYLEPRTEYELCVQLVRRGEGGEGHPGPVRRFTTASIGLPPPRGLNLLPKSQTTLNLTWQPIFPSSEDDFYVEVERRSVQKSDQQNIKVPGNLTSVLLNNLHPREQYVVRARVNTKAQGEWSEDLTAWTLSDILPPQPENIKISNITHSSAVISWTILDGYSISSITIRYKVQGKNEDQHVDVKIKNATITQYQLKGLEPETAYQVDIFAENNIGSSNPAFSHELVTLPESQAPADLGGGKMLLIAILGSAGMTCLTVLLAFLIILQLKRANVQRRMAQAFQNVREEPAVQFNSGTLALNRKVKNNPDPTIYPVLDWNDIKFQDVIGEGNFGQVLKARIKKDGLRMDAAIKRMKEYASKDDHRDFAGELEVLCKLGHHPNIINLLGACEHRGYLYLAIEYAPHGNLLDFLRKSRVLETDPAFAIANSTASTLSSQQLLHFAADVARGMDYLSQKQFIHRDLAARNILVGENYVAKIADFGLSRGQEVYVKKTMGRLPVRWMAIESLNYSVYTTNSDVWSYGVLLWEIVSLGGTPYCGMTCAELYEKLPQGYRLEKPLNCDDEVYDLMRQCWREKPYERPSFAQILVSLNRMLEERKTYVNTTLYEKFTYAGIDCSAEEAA
Assay [2] has as its target T1, Tie2. On the set-up: expressed in transfected cells; host or cells: CHO (CHO Tie2/DHFR). As to conditions: Albert et al. Mol. Cancer. Ther. 2006, 5, 995; cited from earlier work.
Target sequence in this assay (Q02763 23-1124, species assumed): as above
Assay [3] deals with T1, Tie2. Briefly: Tie2 ELISA assay (cellular Tie2 autophosphorylation). It counts as cell-based. Also on record: expressed in transfected cells; host or cells: CHO (CHO Tie2/DHFR). To be noted: CHO cells stably transfected with Tie2, stimulated by angiopoietin-2; Tie2 autophosphorylation by sandwich-ELISA; read-out: Tie 2 activity (assay 1). How it is done:
Cellular activity of compounds of the present invention as inhibitors of Tie2 kinase activity was measured employing a Tie2 ELISA assay as described in the following paragraphs. Herein CHO cell-cultures, which are stably transfected by known techniques with Tie2 using DHFR deficiency as selection marker, are stimulated by angiopoietin-2. The specific autophosphorylation of Tie2 receptors is quantified with a sandwich-ELISA using anti-Tie2 antibodies for catch and anti-phosphotyrosine antibodies coupled to HRP for detection.
• 96 well tissue culture plate, sterile, Greiner • 96 well FluoroNunc plate MaxiSorp Surface C, Nunc • 96 well plate polypropylene for compound dilution in DMSO • CHO Tie2/DHFR (transfected cells) • PBS−; PBS++, DMSO • MEM alpha Medium with Glutamax-I without Ribonucleosides and Deoxyribonucleosides (Gibco #32561-029) • with 10% FCS after dialysis! and 1% PenStrep • Lysis buffer: 1 Tablet “Complete” protease inhibitor • 1 cap Vanadate (1 mL>40 mg/mL; working solution 2 mM) • ad 50 mL with Duschl-Puffer • pH 7.6 • Anti-Tie2-antibody 1:425 in Coating Buffer pH 9.6 • Stock solution: 1.275 mg/mL>working.: 3 μg/mL • PBST: 2 bottles PBS (10×)+10 ml Tween, fill up with VE-water • RotiBlock 1:10 in VE-water • Anti-Phosphotyrosine HRP-Conjugated 1:10000 in 3% TopBlock • 3% TopBlock in PBST • BM Chemiluminescence ELISA Substrate (POD) • solution B 1:100 solution A • SF9 cell culture medium • Ang2-Fc in SF9 cell culture medium
• Dispense 5×10^4 cells/well/98 μL in 96 well tissue culture plate • Incubate at 37° C./5% CO2 • After 24 h add compounds according to desired concentrations • Add also to control and stimulated values without compounds 2 μL DMSO • And mix for a few min at room temperature • Add 100 μL Ang2-Fc to all wells except control, which receives insect medium • Incubate 20 min at 37° C. • Wash 3× with PBS++ • Add 100 μl Lysis buffer/well and shake a couple of min at room temperature • Store lysates at […] before utilizing for the ELISA
• Coat 96 well FluoroNunc Plate MaxiSorp Surface C with anti-Tie2 mAb 1:425 in Coating buffer pH 9.6; 100 μL/well overnight at 4° C. • Wash 2× with PBST • Block plates with 250 μL/well RotiBlock 1:10 in VE-water • Incubate for 2 h at room temperature or overnight at 4° C. shaking • Wash 2× in PBST • Add thawed lysates to wells and incubate overnight shaking at 4° C. • Wash 2× with PBST • Add 100 μL/well anti-Phosphotyrosine HRP-Conjugated 1:10000 in 3% TopBlock (3% TopBlock in PBST) and incubate overnight under shaking • Wash 6× with PBST • Add 100 μL/well BM Chemiluminescence ELISA Substrate (POD) solutions 1 und 2 (1:100) • Determine luminescence with the LumiCount. Assay 2: Tie-2-Kinase HTRF-Assay without Kinase Preactivation
For orientation: ELISA stands for enzyme-linked immunosorbent assay.
Target sequence in this assay (Q02763 23-1124, species assumed): as above

Assay [4] concerns the target T1, Tie2. The experiment in a line: Tie-2-Kinase HTRF-Assay without kinase preactivation. It counts as biochemical. Also on record: fusion protein of GST and the intracellular domains of Tie-2; GST; made in house; host or cells: insect cells (Hi-5). To be noted: GST-Tie-2 intracellular domains, 10 μM ATP. The text has this:
Tie2-inhibitory activity of compounds of the present invention was quantified employing two Tie2 HTRF assay as described in the following paragraphs.
A recombinant fusion protein of GST and the intracellular domains of Tie-2, expressed in insect cells (Hi-5) and purified by Glutathion-Sepharose affinity chromatography was used as kinase. Alternatively, commercially available GST-Tie2-fusion protein (Upstate Biotechnology, Dundee, Scotland) can be used As substrate for the kinase reaction the biotinylated peptide biotin-Ahx-EPKDDAYPLYSDFG (C-terminus in amid form) was used which can be purchased e.g. from the company Biosynthan GmbH (Berlin-Buch, Germany). Detection of phosphorylated product is achieved specifically by a trimeric detection complex consisting of the phosphorylated substrate, streptavidin-XLent (SA-XLent) which binds to biotin, and Europium Cryptate-labeled anti-phosphotyrosine antibody PT66 which binds to phosphorylated tyrosine.
Tie-2 (3.5 ng/measurement point) was incubated for 60 min at 22° C. in the presence of 10 μM adenosine-tri-phosphate (ATP) and 1 μM substrate peptide (biotin-Ahx-EPKDDAYPLYSDFG-NH2) with different concentrations of test compounds (0 μM and concentrations in the range 0.001-20 μM) in 5 μl assay buffer [50 mM Hepes/NaOH pH 7, 10 mM MgCl2, 0.5 mM MnCl2, 1.0 mM dithiothreitol, 0.01% NP40, protease inhibitor mixture (“Complete w/o EDTA” from Roche, 1 tablet per 2.5 ml), 1% (v/v) dimethylsulfoxide]. The reaction was stopped by the addition of 5 μl of an aqueous buffer (25 mM Hepes/NaOH pH 7.5, 0.28% (w/v) bovine serum albumin) containing EDTA (90 mM) and the HTRF (Homogeneous Time Resolved Fluorescence) detection reagents streptavidine-XLent (0.2 μM, from Cis Biointernational, Marcoule, France) and PT66-Eu-Chelate (0.3 ng/μl; a europium-chelate labelled anti-phospho-tyrosine antibody from Perkin Elmer).
The resulting mixture was incubated 1 h at 22° C. to allow the binding of the biotinylated phosphorylated peptide to the streptavidine-XLent and the PT66-Eu-Chelate. Subsequently the amount of phosphorylated substrate peptide was evaluated by measurement of the resonance energy transfer from the PT66-Eu-Chelate to the streptavidine-XLent. Therefore, the fluorescence emissions at 620 nm and 665 nm after excitation at 350 nm was measured in a HTRF reader, e.g. a Rubystar (BMG Labtechnologies, Offenburg, Germany) or a Viewlux (Perkin-Elmer). The ratio of the emissions at 665 nm and at […] was taken as the measure for the amount of phosphorylated substrate peptide. The data were normalised (enzyme reaction without inhibitor=0% inhibition, all other assay components but no enzyme=100% inhibition) and IC50 values were calculated by a 4 parameter fit using an inhouse software.
Target sequence in this assay (Q02763 770-1124 limits assumed, species assumed): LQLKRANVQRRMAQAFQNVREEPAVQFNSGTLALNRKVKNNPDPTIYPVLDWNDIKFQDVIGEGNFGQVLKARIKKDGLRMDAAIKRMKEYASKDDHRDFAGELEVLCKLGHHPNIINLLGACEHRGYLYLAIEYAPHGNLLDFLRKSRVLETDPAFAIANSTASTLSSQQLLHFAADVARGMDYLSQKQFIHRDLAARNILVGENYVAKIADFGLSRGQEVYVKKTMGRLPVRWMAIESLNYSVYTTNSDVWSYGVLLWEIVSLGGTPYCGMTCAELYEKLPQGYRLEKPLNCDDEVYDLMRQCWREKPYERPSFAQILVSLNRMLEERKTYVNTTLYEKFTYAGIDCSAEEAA
For orientation: In TR-FRET formats the signal depends on donor and acceptor labels being close together.

For `Cc1ccc(F)c(NC(=O)Nc2ccc(-c3cccc4[nH]nc(N)c34)cc2)c1` [Abt-869], the “potency against at least 5 other kinase targets relative to Tie2” value on Tie2 [1] is more than 10 times. The “activity as inhibitor of cellular Tie2 autophosphorylation” value on Tie2 [2] was “only modest activity”.
As for `Cn1ncc2c(-c3ccc(NC(=O)Nc4ccc(CN5CCN(CC6CC6)CC5)c(C(F)(F)F)c4)cc3)cncc21` [Example 13.26, 1-[4-(4-Cyclopropylmethyl-piperazin-1-ylmethyl)-3-trifluoromethyl-phenyl]-3-[4-(1-methyl-1H-pyrazolo[3,4-c]pyridin-4-yl)-phenyl]-urea], the IC50 on Tie2 [3] and against Tie2 [4] was less than 0.501 µM each time.
